The target in one test is T1, α-amylase (Sus scrofa, UniProt P00690).
T1 sequence (P00690 16-511): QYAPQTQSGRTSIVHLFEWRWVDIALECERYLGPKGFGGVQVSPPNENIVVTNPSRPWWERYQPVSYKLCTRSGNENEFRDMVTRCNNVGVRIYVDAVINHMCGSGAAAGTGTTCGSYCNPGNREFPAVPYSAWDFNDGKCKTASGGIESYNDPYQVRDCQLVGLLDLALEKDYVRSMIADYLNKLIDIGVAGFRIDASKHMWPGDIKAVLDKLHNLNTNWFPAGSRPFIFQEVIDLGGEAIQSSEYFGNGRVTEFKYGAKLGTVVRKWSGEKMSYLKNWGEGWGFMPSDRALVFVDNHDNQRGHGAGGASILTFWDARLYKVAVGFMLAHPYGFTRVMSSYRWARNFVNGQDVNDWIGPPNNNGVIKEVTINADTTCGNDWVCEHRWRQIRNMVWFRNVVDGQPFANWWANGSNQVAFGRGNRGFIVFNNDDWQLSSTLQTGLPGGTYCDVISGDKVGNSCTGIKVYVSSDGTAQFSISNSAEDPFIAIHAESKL
Put plainly: Alpha-amylase inhibition assay (DNS method). It is filed as biochemical. Particulars: in vitro, triplicate; read-out: IC50 = α-Amylase µM ± SEM.

For a further test, the target named is α-glucosidase (Saccharomyces cerevisiae, UniProt P53341). The class given is biochemical. Particulars: in vitro, triplicate; read-out: IC50 = α-Glucosidase µM ± SEM.
Chain of α-glucosidase (P53341 whole entry): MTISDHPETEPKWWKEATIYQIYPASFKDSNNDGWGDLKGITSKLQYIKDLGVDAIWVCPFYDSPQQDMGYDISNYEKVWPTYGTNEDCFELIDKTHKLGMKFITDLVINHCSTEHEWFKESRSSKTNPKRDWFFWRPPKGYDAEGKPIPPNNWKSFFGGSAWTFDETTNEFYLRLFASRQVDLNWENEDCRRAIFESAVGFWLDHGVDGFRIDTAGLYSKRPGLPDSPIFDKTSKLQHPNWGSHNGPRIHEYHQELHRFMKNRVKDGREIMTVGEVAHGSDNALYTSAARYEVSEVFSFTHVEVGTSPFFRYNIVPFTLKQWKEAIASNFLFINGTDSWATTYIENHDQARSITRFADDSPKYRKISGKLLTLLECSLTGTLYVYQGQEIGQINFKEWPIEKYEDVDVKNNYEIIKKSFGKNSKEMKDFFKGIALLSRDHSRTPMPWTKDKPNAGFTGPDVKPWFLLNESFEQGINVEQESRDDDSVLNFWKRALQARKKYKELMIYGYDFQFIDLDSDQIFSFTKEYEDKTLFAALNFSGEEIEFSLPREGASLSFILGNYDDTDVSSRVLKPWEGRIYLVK

Protocol for α-amylase: The in vitro alpha-amylase study was conducted and the enzyme was sourced from Merck (Sigma-Aldrich, Hamburg, Germany). The inhibitory activity of the synthesized compounds against α-amylase was evaluated using a standard protocol with slight modifications [44]. In brief, 250 µL of the test compound (prepared at varying concentrations, 50–250 µg/mL) was mixed with 250 µL of starch solution [1% (w/v)] and 250 µL of α-amylase solution (1 U/mL). The reaction mixture was incubated at 20 °C for 3 min, after which enzymatic activity was terminated by the addition of 500 µL of dinitrosalicylic acid (DNS) color reagent. The mixture was then heated in a boiling water bath at 85 °C for 15 min, cooled to room temperature for 5 min, and diluted with 4.5 mL of distilled water to a final volume of 6.0 mL. Absorbance was measured at 540 nm using a UV-visible spectrophotometer. […] The percentage inhibition was calculated and all experiments were conducted in triplicate.
Protocol for α-glucosidase: The in vitro alpha-glucosidase study was conducted and the enzyme was sourced from Merck (Sigma-Aldrich). The α-glucosidase inhibitory activity was determined following a standard microplate-based method [45]. In each well of a 96-well plate, 35 µL of phosphate buffer (pH 6.8), 31 µL of the test compound solution (50–250 µg/mL), and 18 µL of p-nitrophenyl-α-D-glucopyranoside (pNPG, substrate) were added and pre-incubated at 37 °C for 5 min. The reaction was initiated by the addition of 16 µL of α-glucosidase (0.15 U/mL in phosphate buffer), resulting in a total assay volume of 100 µL. After incubation, the reaction was terminated by adding 100 µL of sodium carbonate (200 mM), and absorbance was recorded at 405 nm using a microplate reader. […] The percentage inhibition was calculated according to the following equation: % inhibition=(Abs control − Abs sample)/Abs control×100
All assays were performed in triplicate to ensure reproducibility.

“5-(2,4-Dihydroxy-5-methylphenyl)-6H-imidazo{1,2-b]{1,2,4]triazole-2-carboxylic acid [Compound 7]”: the IC50 on α-amylase was found to be 7.1 ± 0.3 µM; on α-glucosidase, 7.7 ± 0.2 µM.

The IC50 is the point on the concentration scale where inhibition reaches its midpoint.
